Test results taken from publication PMC5218480 (PLoS ONE, 2017).

System: MV-4-11 cells
Test: Gene expression microarray analysis (Affymetrix PrimeView) and GSEA
Format: cell-based, human
Parameters: RFU PODN (11730768_x_at) / Fold change /veh PODN (11730768_x_at) / RFU LINC00158 (11744669_a_at) / Fold change /veh LINC00158 (11744669_a_at) / RFU DUSP10 (11751237_a_at) / Fold change /veh DUSP10 (11751237_a_at) / RFU ID3 (11757404_x_at) / Fold change /veh ID3 (11757404_x_at) / RFU PLEKHG5 (11737974_s_at) / Fold change /veh PLEKHG5 (11737974_s_at) / RFU LRRC4B (11730491_at) / Fold change /veh LRRC4B (11730491_at) / RFU GIMAP4 (11747438_a_at) / Fold change /veh GIMAP4 (11747438_a_at) / RFU KRT8 (11758183_x_at) / Fold change /veh KRT8 (11758183_x_at) / RFU CNN1 (11734310_a_at) / Fold change /veh CNN1 (11734310_a_at) / RFU VPS37D (11726825_at) / Fold change /veh VPS37D (11726825_at) / RFU C10orf10 (11716522_x_at) / Fold change /veh C10orf10 (11716522_x_at) / RFU KIR2DL2 /// KIR2DL4 /// KIR2DL5A /// KIR2DL5B /// KIR2DS1 /// KIR2DS2 /// KIR2DS3 /// KIR2DS4 /// KIR3DL3 /// KIR3DL3 /// KIR3DS1 (11738374_at) / Fold change /veh KIR2DL2 /// KIR2DL4 /// KIR2DL5A /// KIR2DL5B /// KIR2DS1 /// KIR2DS2 /// KIR2DS3 /// KIR2DS4 /// KIR3DL3 /// KIR3DL3 /// KIR3DS1 (11738374_at) / RFU C1QL1 (11718748_at) / Fold change /veh C1QL1 (11718748_at) / RFU TMPRSS4 (11747572_a_at) / Fold change /veh TMPRSS4 (11747572_a_at) / RFU HAMP (11756126_x_at) / Fold change /veh HAMP (11756126_x_at) / RFU RNFT2 (11725882_a_at) / Fold change /veh RNFT2 (11725882_a_at) / RFU NR4A2 (11747474_a_at) / Fold change /veh NR4A2 (11747474_a_at) / RFU ABCC12 (11746883_a_at) / Fold change /veh ABCC12 (11746883_a_at) / RFU TMEM136 (11760407_x_at) / Fold change /veh TMEM136 (11760407_x_at) / RFU CLDN22 /// WWC2 (11732394_at) / Fold change /veh CLDN22 /// WWC2 (11732394_at) / RFU HLA-DPB1 (11760878_x_at) / Fold change /veh HLA-DPB1 (11760878_x_at) / RFU SPINT1 (11716480_a_at) / Fold change /veh SPINT1 (11716480_a_at) / RFU GAP43 (11754022_s_at) / Fold change /veh GAP43 (11754022_s_at) / RFU A4GNT (11735810_at) / Fold change /veh A4GNT (11735810_at) / RFU PRB3 (11715151_x_at) / Fold change /veh PRB3 (11715151_x_at) / RFU TUBB4B (11761932_at) / Fold change /veh TUBB4B (11761932_at) / RFU CAPN14 (11732068_a_at) / Fold change /veh CAPN14 (11732068_a_at) / RFU TMCC2 (11721928_a_at) / Fold change /veh TMCC2 (11721928_a_at) / RFU IRGQ (11745062_a_at) / Fold change /veh IRGQ (11745062_a_at) / RFU FAM174B (11720279_a_at) / Fold change /veh FAM174B (11720279_a_at) / RFU TMPRSS4 (11748680_a_at) / Fold change /veh TMPRSS4 (11748680_a_at) / RFU FAM212B (11763350_a_at) / Fold change /veh FAM212B (11763350_a_at) / RFU PLEKHG5 (11743358_a_at) / Fold change /veh PLEKHG5 (11743358_a_at) / RFU ZSCAN30 (11745921_a_at) / Fold change /veh ZSCAN30 (11745921_a_at) / RFU CMKLR1 (11741424_a_at) / Fold change /veh CMKLR1 (11741424_a_at) / RFU LOC101060620 /// MAPK8IP1 (11723275_at) / Fold change /veh LOC101060620 /// MAPK8IP1 (11723275_at) / RFU SPTSSB (11747773_x_at) / Fold change /veh SPTSSB (11747773_x_at) / RFU PRSS12 (11739890_at) / Fold change /veh PRSS12 (11739890_at) / RFU BIN1 (11741810_x_at) / Fold change /veh BIN1 (11741810_x_at) / RFU WNT11 (11732464_a_at) / Fold change /veh WNT11 (11732464_a_at) / RFU C10orf10 (11716521_a_at) / Fold change /veh C10orf10 (11716521_a_at) / RFU C5orf56 (11738089_at) / Fold change /veh C5orf56 (11738089_at) / RFU CYB561 (11721691_x_at) / Fold change /veh CYB561 (11721691_x_at) / RFU ANKRD19P (11752326_a_at) / Fold change /veh ANKRD19P (11752326_a_at) / RFU OR2T12 /// OR2T33 /// OR2T8 (11738714_s_at) / Fold change /veh OR2T12 /// OR2T33 /// OR2T8 (11738714_s_at) / RFU VCAN (11748164_a_at) / Fold change /veh VCAN (11748164_a_at) / RFU JSRP1 (11732532_at) / Fold change /veh JSRP1 (11732532_at) / RFU KRTAP10-11 (11738290_x_at) / Fold change /veh KRTAP10-11 (11738290_x_at) / RFU MYO3A (11730013_a_at) / Fold change /veh MYO3A (11730013_a_at) / RFU EBF3 (11725865_a_at) / Fold change /veh EBF3 (11725865_a_at) / RFU CAMK2N1 (11719241_x_at) / Fold change /veh CAMK2N1 (11719241_x_at) / RFU C5orf56 (11738088_a_at) / Fold change /veh C5orf56 (11738088_a_at) / RFU OLFML3 (11715873_a_at) / Fold change /veh OLFML3 (11715873_a_at) / RFU LOC100653217 /// NTM (11731650_a_at) / Fold change /veh LOC100653217 /// NTM (11731650_a_at) / RFU MAPK11 (11762145_a_at) / Fold change /veh MAPK11 (11762145_a_at) / RFU FIZ1 (11724087_x_at) / Fold change /veh FIZ1 (11724087_x_at) / RFU OASL (11726364_x_at) / Fold change /veh OASL (11726364_x_at) / RFU SOX15 (11748057_x_at) / Fold change /veh SOX15 (11748057_x_at) / RFU CD79A (11719716_a_at) / Fold change /veh CD79A (11719716_a_at) / RFU HIST1H1D (11736915_at) / Fold change /veh HIST1H1D (11736915_at) / RFU CASKIN2 (11723855_a_at) / Fold change /veh CASKIN2 (11723855_a_at) / RFU LOC730098 (11760151_x_at) / Fold change /veh LOC730098 (11760151_x_at) / RFU OR4N2 (11742367_at) / Fold change /veh OR4N2 (11742367_at) / RFU PRRT2 (11749266_a_at) / Fold change /veh PRRT2 (11749266_a_at) / RFU SNX32 (11753110_a_at) / Fold change /veh SNX32 (11753110_a_at) / RFU CDHR5 (11726645_a_at) / Fold change /veh CDHR5 (11726645_a_at) / RFU RCAN1 (11760418_a_at) / Fold change /veh RCAN1 (11760418_a_at) / RFU FAM167A (11723789_a_at) / Fold change /veh FAM167A (11723789_a_at) / RFU FAM26E (11764081_at) / Fold change /veh FAM26E (11764081_at) / RFU ISYNA1 (11749810_s_at) / Fold change /veh ISYNA1 (11749810_s_at) / RFU ACY1 (11761880_at) / Fold change /veh ACY1 (11761880_at) / RFU 11764098_at / Fold change /veh 11764098_at / RFU SAMD14 (11745864_x_at) / Fold change /veh SAMD14 (11745864_x_at) / RFU NPB (11741838_a_at) / Fold change /veh NPB (11741838_a_at) / RFU TMPRSS6 (11731388_a_at) / Fold change /veh TMPRSS6 (11731388_a_at) / RFU KRTAP10-2 (11738614_at) / Fold change /veh KRTAP10-2 (11738614_at) / RFU ARHGAP8 /// PRR5-ARHGAP8 (11727945_x_at) / Fold change /veh ARHGAP8 /// PRR5-ARHGAP8 (11727945_x_at) / RFU KRTAP5-7 /// NADSYN1 (11734609_at) / Fold change /veh KRTAP5-7 /// NADSYN1 (11734609_at) / RFU RASL12 (11751679_a_at) / Fold change /veh RASL12 (11751679_a_at) / RFU CDKN2B (11736163_a_at) / Fold change /veh CDKN2B (11736163_a_at) / RFU PRF1 (11729649_at) / Fold change /veh PRF1 (11729649_at) / RFU, ZNF638 /// ZNF638-IT1 / Fold change vs veh, ZNF638 /// ZNF638-IT1 / RFU, PANK3 / Fold change vs veh, PANK3 / RFU, SH3YL1 / Fold change vs veh, SH3YL1 / RFU, ZEB2 / Fold change vs veh, ZEB2 / RFU, NRIP1 / Fold change vs veh, NRIP1 / RFU, PTTG1IP / Fold change vs veh, PTTG1IP / RFU, CAPN2 / Fold change vs veh, CAPN2 / RFU, MED14 / Fold change vs veh, MED14 / RFU, SNORA58 / Fold change vs veh, SNORA58 / RFU, C1orf63 / Fold change vs veh, C1orf63 / RFU, LRRFIP1 / Fold change vs veh, LRRFIP1 / RFU, NDUFAF7 / Fold change vs veh, NDUFAF7 / RFU, SLC12A2 / Fold change vs veh, SLC12A2 / RFU, IBTK / Fold change vs veh, IBTK / RFU, ESF1 / Fold change vs veh, ESF1 / Fold change vs veh, TMEM50B / RFU, TAOK1 / Fold change vs veh, TAOK1 / RFU, ACBD3 / Fold change vs veh, ACBD3 / RFU, TMA16 / Fold change vs veh, TMA16 / RFU, RWDD3 / Fold change vs veh, RWDD3 / RFU, BCAT1 / Fold change vs veh, BCAT1 / RFU, EDEM3 / Fold change vs veh, EDEM3 / RFU, TMEM33 / Fold change vs veh, TMEM33 / RFU, WDR75 / Fold change vs veh, WDR75 / RFU, AHCTF1 / Fold change vs veh, AHCTF1 / RFU, TFRC / Fold change vs veh, TFRC / RFU, ZDHHC17 / Fold change vs veh, ZDHHC17 / RFU, NOM1 / Fold change vs veh, NOM1 / RFU, ARL8B / Fold change vs veh, ARL8B / RFU, ZBTB11 / Fold change vs veh, ZBTB11 / RFU, TAMM41 / Fold change vs veh, TAMM41 / RFU, KIAA1704 /// LOC100996395 / Fold change vs veh, KIAA1704 /// LOC100996395 / RFU, ING1 / Fold change vs veh, ING1 / RFU, TRMT61B / Fold change vs veh, TRMT61B / RFU, FUBP3 / Fold change vs veh, FUBP3 / RFU, TP53 / Fold change vs veh, TP53 / RFU, TNKS2 / Fold change vs veh, TNKS2 / RFU, ZFP14 / Fold change vs veh, ZFP14 / RFU, ACTR2 / Fold change vs veh, ACTR2 / RFU, PPP3R1 / Fold change vs veh, PPP3R1 / RFU, PIK3R1 / Fold change vs veh, PIK3R1 / RFU, HNRNPA1 / Fold change vs veh, HNRNPA1 / RFU, RNF170 / Fold change vs veh, RNF170 / RFU, ZNF28 / Fold change vs veh, ZNF28 / RFU, RNGTT / Fold change vs veh, RNGTT / RFU, OGT / Fold change vs veh, OGT / RFU, BRD1 / Fold change vs veh, BRD1 / RFU, MARS / Fold change vs veh, MARS / RFU, ZNF655 / Fold change vs veh, ZNF655 / RFU, FAHD1 / Fold change vs veh, FAHD1 / RFU, BDP1 / Fold change vs veh, BDP1 / RFU, LRRCC1 / Fold change vs veh, LRRCC1 / RFU, ARID1A / Fold change vs veh, ARID1A / RFU, ZNF146 / Fold change vs veh, ZNF146 / RFU, ZNF330 / Fold change vs veh, ZNF330 / RFU, GPN3 / Fold change vs veh, GPN3 / RFU, C9orf123 / Fold change vs veh, C9orf123 / RFU, N4BP2L2 / Fold change vs veh, N4BP2L2 / RFU, ARFIP1 / Fold change vs veh, ARFIP1 / RFU, FAM179B / Fold change vs veh, FAM179B / RFU, BCL10 / Fold change vs veh, BCL10 / RFU, UHRF1BP1L / Fold change vs veh, UHRF1BP1L / RFU, BET1 / Fold change vs veh, BET1 / RFU, CNOT2 / Fold change vs veh, CNOT2 / RFU, ZNF268 / Fold change vs veh, ZNF268 / Fold change vs veh, ZNF507 / RFU, DGCR2 / Fold change vs veh, DGCR2 / RFU, WDSUB1 / Fold change vs veh, WDSUB1 / Fold change vs veh, HSP90B1 /// MIR3652 / RFU, ADSS / Fold change vs veh, ADSS / RFU, GK / Fold change vs veh, GK / RFU, ZNF148 / Fold change vs veh, ZNF148 / RFU, TAF9 / Fold change vs veh, TAF9 / RFU, SLC1A5 / Fold change vs veh, SLC1A5 / RFU, SLMO2 / Fold change vs veh, SLMO2 / RFU, ABCC4 / Fold change vs veh, ABCC4 / RFU, LOC101060439 /// RAP1B / Fold change vs veh, LOC101060439 /// RAP1B / RFU, RFX7 / Fold change vs veh, RFX7 / RFU, GTPBP10 / Fold change vs veh, GTPBP10 / RFU, CNEP1R1 / Fold change vs veh, CNEP1R1 / RFU, BIVM-ERCC5 /// ERCC5 / Fold change vs veh, BIVM-ERCC5 /// ERCC5 / RFU, ILF3 / Fold change vs veh, ILF3 / RFU 11762660_at / Fold change /veh 11762660_at / RFU VCAN (11757783_s_at) / Fold change /veh VCAN (11757783_s_at) / RFU DDX43 (11728927_at) / Fold change /veh DDX43 (11728927_at) / RFU KRT8 (11758188_x_at) / Fold change /veh KRT8 (11758188_x_at) / RFU NKD1 (11759106_at) / Fold change /veh NKD1 (11759106_at) / RFU SRD5A1 (11742802_a_at) / Fold change /veh SRD5A1 (11742802_a_at) / RFU TPSAB1 /// TPSB2 (11721975_s_at) / Fold change /veh TPSAB1 /// TPSB2 (11721975_s_at) / RFU GSTM3 (11746129_a_at) / Fold change /veh GSTM3 (11746129_a_at) / RFU IL23R (11737362_x_at) / Fold change /veh IL23R (11737362_x_at) / RFU TMEM51 (11727254_a_at) / Fold change /veh TMEM51 (11727254_a_at) / RFU PIWIL2 (11732686_x_at) / Fold change /veh PIWIL2 (11732686_x_at) / RFU ORM1 (11744905_x_at) / Fold change /veh ORM1 (11744905_x_at) / RFU CCDC152 (11743942_at) / Fold change /veh CCDC152 (11743942_at) / RFU ECM1 (11717891_a_at) / Fold change /veh ECM1 (11717891_a_at) / RFU IL23R (11748794_a_at) / Fold change /veh IL23R (11748794_a_at) / RFU TNFAIP8L3 (11732012_x_at) / Fold change /veh TNFAIP8L3 (11732012_x_at) / RFU MBOAT4 (11741988_at) / Fold change /veh MBOAT4 (11741988_at) / RFU 11764193_at / Fold change /veh 11764193_at / RFU TMEM53 (11763286_at) / Fold change /veh TMEM53 (11763286_at) / RFU MAGEB2 (11727129_at) / Fold change /veh MAGEB2 (11727129_at) / RFU TMEM200A (11744735_a_at) / Fold change /veh TMEM200A (11744735_a_at) / RFU CCDC152 (11751479_a_at) / Fold change /veh CCDC152 (11751479_a_at) / RFU FAM211A (11726209_a_at) / Fold change /veh FAM211A (11726209_a_at) / RFU RGS16 (11746705_a_at) / Fold change /veh RGS16 (11746705_a_at) / RFU VCAN (11755009_s_at) / Fold change /veh VCAN (11755009_s_at) / RFU RHOB (11743442_s_at) / Fold change /veh RHOB (11743442_s_at) / RFU RGS16 (11720943_a_at) / Fold change /veh RGS16 (11720943_a_at) / RFU RGS16 (11720944_at) / Fold change /veh RGS16 (11720944_at) / RFU, VPS4B / Fold change vs veh, VPS4B / RFU, CREB1 / Fold change vs veh, CREB1 / RFU, DNAJC13 / Fold change vs veh, DNAJC13 / RFU, GNAQ / Fold change vs veh, GNAQ / RFU, CDK5R1 / Fold change vs veh, CDK5R1 / RFU, ZRANB3 / Fold change vs veh, ZRANB3 / RFU, CUL4A / Fold change vs veh, CUL4A / RFU, CCNY / Fold change vs veh, CCNY / RFU, UFL1 / Fold change vs veh, UFL1 / RFU, COG3 / Fold change vs veh, COG3 / RFU, DIAPH2 / Fold change vs veh, DIAPH2 / RFU, SKA2 / Fold change vs veh, SKA2 / RFU, AFF3 / Fold change vs veh, AFF3 / RFU, LMF1 / Fold change vs veh, LMF1 / RFU, IPO11 / Fold change vs veh, IPO11 / RFU, DFFB / Fold change vs veh, DFFB / RFU, FOXP1 / Fold change vs veh, FOXP1 / RFU, CARD8 / Fold change vs veh, CARD8 / RFU, STRN3 / Fold change vs veh, STRN3 / RFU, ADK / Fold change vs veh, ADK / RFU, RASSF2 / Fold change vs veh, RASSF2 / RFU, WIPF1 / Fold change vs veh, WIPF1 / RFU, LARP1B / Fold change vs veh, LARP1B / RFU, RASA1 / Fold change vs veh, RASA1 / RFU, RB1 / Fold change vs veh, RB1 / RFU, PPFIA1 / Fold change vs veh, PPFIA1 / RFU, MAT2A / Fold change vs veh, MAT2A / RFU, CCT5 / Fold change vs veh, CCT5 / RFU, WDR92 / Fold change vs veh, WDR92 / RFU, CUX1 / Fold change vs veh, CUX1 / RFU, TTC7A / Fold change vs veh, TTC7A / RFU, TMEM135 / Fold change vs veh, TMEM135 / RFU, DEPTOR / Fold change vs veh, DEPTOR / RFU, CPM / Fold change vs veh, CPM / RFU, DNAJB6 / Fold change vs veh, DNAJB6 / RFU, CACNA2D3 / Fold change vs veh, CACNA2D3 / RFU, DTX4 / Fold change vs veh, DTX4 / RFU, TFCP2 / Fold change vs veh, TFCP2 / RFU, GMCL1 /// GMCL1P1 / Fold change vs veh, GMCL1 /// GMCL1P1 / RFU, AEBP2 / Fold change vs veh, AEBP2 / RFU, SNHG1 /// SNORD22 /// SNORD25 /// SNORD26 /// SNORD27 /// SNORD28 /// SNORD29 /// SNORD31 / Fold change vs veh, SNHG1 /// SNORD22 /// SNORD25 /// SNORD26 /// SNORD27 /// SNORD28 /// SNORD29 /// SNORD31 / Fold change (Aza/veh), C12orf56 (ProbeSet 11735607_a_at) / Fold change (ACY-1035/veh), C12orf56 (ProbeSet 11735607_a_at) / Fold change (Aza/veh), FGFR1OP (ProbeSet 11751329_s_at) / Fold change (ACY-1035/veh), FGFR1OP (ProbeSet 11751329_s_at) / Fold change (Aza/veh), VPS36 (ProbeSet 11739960_a_at) / Fold change (ACY-1035/veh), VPS36 (ProbeSet 11739960_a_at) / RFU SYPL1 (11715823_x_at) / Fold change /veh SYPL1 (11715823_x_at) / RFU IGFBP7 (11715501_s_at) / Fold change /veh IGFBP7 (11715501_s_at) / RFU REEP3 (11722064_at) / Fold change /veh REEP3 (11722064_at) / RFU IGLL1 (11728026_x_at) / Fold change /veh IGLL1 (11728026_x_at): dose or concentration left out as unconfirmed
Details: ProbeSet 11727545_at; LIST B

Compound: Nc1ccc(-c2cccs2)cc1NC(=O)c1ccc2c(c1)cc(C1CC1)n2CCN1CCOCC1 [ACY-1035]
- RFU, PANK3: 81.04 RFU
